The source of these data is US20140045823A1 (Neurocrine Biosciences, Inc., priority 2012, published 2014).

By EC50 is commonly meant the concentration needed to bring the measured effect to its halfway point.

One assay concerns the target T1, human GPR119 (Homo sapiens, UniProt Q8TDV5).
T1 construct: expression vector for human GPR119 cDNA (Acc. No. NP_848566); expressed in transfected cells; Min-6/hGPR119
T1 sequence (Q8TDV5 1-335): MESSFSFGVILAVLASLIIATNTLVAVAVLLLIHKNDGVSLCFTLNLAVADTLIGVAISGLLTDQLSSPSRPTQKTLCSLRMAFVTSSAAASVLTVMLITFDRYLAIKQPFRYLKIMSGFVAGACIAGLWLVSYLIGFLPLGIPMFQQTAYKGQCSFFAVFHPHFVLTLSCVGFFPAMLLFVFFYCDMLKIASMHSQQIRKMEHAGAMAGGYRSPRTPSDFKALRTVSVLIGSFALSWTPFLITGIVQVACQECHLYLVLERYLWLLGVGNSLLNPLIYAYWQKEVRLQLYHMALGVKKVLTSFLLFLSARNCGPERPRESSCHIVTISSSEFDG
Put plainly: AlphaScreen cAMP assay in MIN6 cells stably transfected with human GPR119. The following applies: Min-6/hGPR119 cells, 45 min at room temperature. Type of assay: cell-based. The gist of the method: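 MIN6 cells stably expressing human GPR119, seeded 10000/well and grown 24 h, were exposed to compound in pH 7.4 buffer with 0.5 mM IBMX, 0.1% BSA and 1% DMSO for 45 min at room temperature. Intracellular cAMP then measured by AlphaScreen.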
On the technique in general: Bead proximity is the source of the signal in Alpha formats.
Take `COc1cc(-c2ncc(C(=O)N(C3CC3)C3CCN(C(=O)OC(C)(C)C)CC3)cn2)ccn1` [Example 85, 4-{Cyclopropyl-[2-(2-methoxy-pyridin-4-yl)-pyrimidine-5-carbonyl]-amino}-piperidine-1-carboxylic acid tert-butyl ester]: the midpoint of the response, the EC50, lay at 46 nM.

Take `CC(C)(C)OC(=O)N1CCC(N(C(=O)c2cnc(-c3ccc(C(=O)NCCOC(F)(F)F)c(F)c3)nc2)C2CC2)CC1` [Example 142, 4-(Cyclopropyl-{2-[3-fluoro-4-(2-trifluoromethoxy-ethylcarbamoyl)-phenyl]-pyrimidine-5-carbonyl}-amino)-piperidine-1-carboxylic acid tert-butyl ester]: a half-maximal effect (EC50) was put at 105 nM.

On to `CN(CC1CCOC1)C(=O)c1ccc(-c2ncc(C(=O)N(C3CC3)C3CCN(C(=O)OC(C)(C)C)CC3)cn2)cc1` (centres unmarked) [Example 202, 4-[Cyclopropyl-(2-{4-[methyl-(tetrahydro-furan-3-ylmethyl)-carbamoyl]-phenyl}-pyrimidine-5-carbonyl)-amino]-piperidine-1-carboxylic acid tert-butyl ester], for which a half-maximal effect (EC50) was put at 171 nM.

`Cn1ccc(CNC(=O)c2ccc(-c3ncc(C(=O)N(C4CC4)C4CCN(C(=O)OC(C)(C)C)CC4)cn3)cc2F)n1` [Example 136, 4-[Cyclopropyl-(2-{3-fluoro-4-[(1-methyl-1H-pyrazol-3-ylmethyl)-carbamoyl]-phenyl}-pyrimidine-5-carbonyl)-amino]-piperidine-1-carboxylic acid tert-butyl ester] had an EC50 of 194 nM.

Molecule `CC(C)(C)OC(=O)N1CCC(N(C(=O)c2cnc(-c3ccc(CC(=O)N4CCC[C@H]4C#N)cc3)nc2)C2CC2)CC1` [Example 214, 4-[(2-{4-[2-(2-Cyano-pyrrolidin-1-yl)-2-oxo-ethyl]-phenyl}-pyrimidine-5-carbonyl)-cyclopropyl-amino]-piperidine-1-carboxylic acid tert-butyl ester] returned a concentration for a half-maximal effect (EC50) of 418 nM.

Consider `CC(C)(C)OC(=O)N1CCC(N(C(=O)c2coc(-c3ccc(C#N)c(F)c3)n2)C2CC2)CC1` [Example 24, 4-{[2-(4-Cyano-3-fluoro-phenyl)-oxazole-4-carbonyl]-cyclopropyl-amino}-piperidine-1-carboxylic acid tert-butyl ester], for which the EC50 was found to be 42 nM.

Turning to `Cc1nccn1-c1ncc(C(=O)N(C2CC2)C2CCN(C(=O)OC(C)(C)C)CC2)cn1` [Example 99, 4-{Cyclopropyl-[2-(2-methyl-imidazol-1-yl)-pyimidine-5-carbonyl]-amino}-piperidine-1-carboxylic acid tert-butyl ester], a half-maximal effect (EC50) was put at 37 nM.

Turning to `COC1CCN(C(=O)c2ccc(-c3ncc(C(=O)N(C4CC4)C4CCN(C(=O)OC(C)(C)C)CC4)cn3)cc2F)CC1` [Example 164, 4-(Cyclopropyl-{2-[3-fluoro-4-(4-methoxy-piperidine-1-carbonyl)-phenyl]-pyrimidine-5-carbonyl}-amino)-piperidine-1-carboxylic acid tert-butyl ester], the 50% effective concentration (EC50) is 221 nM.

On to `CN(C)c1ccc(-c2ncc(C(=O)N(C3CC3)C3CCN(C(=O)OC(C)(C)C)CC3)cn2)cn1` [Example 93, 4-{Cyclopropyl-[2-(6-dimethylamino-pyridin-3-yl)-pyrimidine-5-carbonyl]-amino}-piperidine-1-carboxylic acid tert-butyl ester], for which the response was half-maximal at 209 nM (EC50).

Regarding `Cc1c(C(=O)N(C2CC2)C2CCN(C(=O)OC(C)(C)C)CC2)noc1-c1ccc(C#N)cc1F` [Example 46, 4-{[5-(4-Cyano-2-fluoro-phenyl)-4-methyl-isoxazole-3-carbonyl]-cyclopropyl-amino}-piperidine-1-carboxylic acid tert-butyl ester], the concentration giving a half-maximal response (EC50) worked out at 3 nM.

The molecule `CC(C)(C)OC(=O)N1CCC(N(C(=O)c2cnc(-c3ccc(C(=O)N4CCCOCC4)c(F)c3)nc2)C2CC2)CC1` [Example 117, 4-(Cyclopropyl-{2-[3-fluoro-4-([1,4]oxazepane-4-carbonyl)-phenyl]-pyrimidine-5-carbonyl}-amino)-piperidine-1-carboxylic acid tert-butyl ester] gave a half-maximal effective concentration (EC50) of 275 nM.

Molecule `CC(C)(C)OC(=O)N1CCC(N(C(=O)c2coc(-c3ccc(S(C)(=O)=O)c(F)c3)n2)C2CC2)CC1` [Example 28, 4-{Cyclopropyl-[2-(3-fluoro-4-methanesulfonyl-phenyl)-oxazole-4-carbonyl]-amino}-piperidine-1-carboxylic acid tert-butyl ester] showed an EC50 of 159 nM.

The molecule `CC(C)(C)OC(=O)N1CCC(N(C(=O)c2cnc(-c3ccc(S(C)(=O)=O)cc3F)o2)C2CC2)CC1` [Example 30, 4-{Cyclopropyl-[2-(2-fluoro-4-methanesulfonyl-phenyl)-oxazole-5-carbonyl]-amino}-piperidine-1-carboxylic acid tert-butyl ester] came in with an EC50 of 176 nM.

The next assay has as its target T2, mutant form of the human GPR119 receptor (Homo sapiens, UniProt Q8TDV5, S329A/T327A).
T2 construct: expressed in transfected cells
T2 sequence (Q8TDV5 with tags, fused parts or gaps T327A/S329A): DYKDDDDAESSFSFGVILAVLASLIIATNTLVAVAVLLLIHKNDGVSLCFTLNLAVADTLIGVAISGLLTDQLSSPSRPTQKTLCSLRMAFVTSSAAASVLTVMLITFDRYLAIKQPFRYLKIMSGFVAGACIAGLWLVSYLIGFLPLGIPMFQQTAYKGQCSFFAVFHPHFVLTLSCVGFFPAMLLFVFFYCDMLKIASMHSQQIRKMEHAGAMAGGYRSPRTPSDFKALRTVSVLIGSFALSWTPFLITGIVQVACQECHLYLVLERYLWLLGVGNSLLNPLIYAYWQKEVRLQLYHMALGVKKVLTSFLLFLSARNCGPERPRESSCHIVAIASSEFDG
Kind of assay: LANCE cAMP-384 assay in HEK293 cells stably expressing a mutant form of the human GPR119 receptor. The class given is cell-based. The conditions noted are these: mutant human GPR119, LANCE cAMP-384 Kit, 20 min at 37° C., read-out: EC50 (cAMP accumulation). The protocol:
Quantitative detection of cAMP accumulation from cells expressing human GPR119 receptor is achieved using Perkin Elmer's LANCE cAMP-384 Kit (Cat#AD0264) according to the manufacturer's protocol. Briefly, HEK293 cells stably expressing a mutant form of the human GPR119 receptor as assay tool (Methionine 1 replaced with the amino acid sequence […], and T327 & S329 changed to alanines; SEQ ID No. 1) are grown to 50-70% confluency in cell culture media (DMEM, 10% heat inactivated Fetal Bovine Serum, 50 I.U./mL penicillin, 50 μg/mL streptomycin, 10 mM HEPES, 20 μg/mL G418 Sulfate). On the day of the assay, GPR119 stable HEK293 cells are lifted from the tissue culture plate and 1000 cells/well are incubated along with various concentrations of test compounds for 20 min at 37° C. Detection Buffer (50 mM HEPES, 10 mM calcium chloride, 0.35% Triton X-100, 1 mg/mL BSA) containing cAMP-specific antibody is then added to all wells and allowed to equilibrate in the dark for 10 minutes at room temperature. Upon equilibration, Detection Buffer containing europium-labeled cAMP tracer complex is added to all wells and allowed to react for 1 hour at room temperature. After 1 hour, bound europium-labeled cAMP tracer is measured using a Perkin Elmer Envision plate reader. The quantity of cAMP generated in each well is derived from a standard curve. EC50 is determined using nonlinear regression analysis of the cAMP values over a range of agonist concentration (12 points spanning the range from 30 μM to […]).
(In general: Time-resolved FRET reads energy transfer from a long-lived donor to a nearby acceptor.)
Turning to `Cc1nccn1-c1ncc(C(=O)N(C2CC2)[C@@H]2CCN(C(=O)OC(C)C)C[C@@H]2F)cn1` [Example 250], the 50% effective concentration (EC50) was 45 nM.

Take `Cc1nnnn1-c1ccc(C(=O)N(C2CC2)C2CCN(C(=O)OC(C)C)CC2F)cn1` (single isomer, unassigned) [Example 249]: the half-maximal effective concentration (EC50) amounted to 146 nM.

Turning to `CC(C)OC(=O)N1CC[C@@H](N(C(=O)c2cnc(-n3cncn3)cn2)C2CC2)[C@@H](F)C1` [Example 248], the EC50 was found to be 54 nM.

`Cc1ncn(-c2cnc(C(=O)N(C3CC3)C3CCN(C(=O)OC(C)C)CC3)cn2)n1` [Example 255]: the EC50 is 1550 nM.

Turning to `Cc1nccn1-c1cnc(C(=O)N(C2CC2)C2CCN(C(=O)OC(C)C)CC2)cn1` [Example 254], the EC50 was found to be 518 nM.

For `Cc1ncnn1-c1ccc(C(=O)N(C2CC2)[C@@H]2CCN(C(=O)OC(C)C)C[C@@H]2F)cn1` [Example 252], the EC50 was 193 nM.

Turning to `Cc1nccn1-c1ncc(C(=O)N(C2CC2)[C@H]2CCN(C(=O)OC(C)C)C[C@H]2F)cn1` [Example 251], the EC50 was determined as 587 nM.

For `CC(C)OC(=O)N1CC[C@H](N(C(=O)c2cnc(-n3cncn3)cn2)C2CC2)[C@H](F)C1` [Example 257], the concentration giving a half-maximal response (EC50) was found to be 801 nM.

As to `Cc1nccn1-c1ncc(C(=O)N(C2CC2)C2CCN(C(=O)OC(C)C)CC2)cn1` [Example 256], the EC50 was 265 nM.

Regarding `CC(C)OC(=O)N1CCC(N(C(=O)c2cnc(-n3cncn3)cn2)C2CC2)CC1` [Example 253], the concentration giving a half-maximal response (EC50) worked out at 435 nM.
